Results taken from US20110195900A1, “PEPTIDIC PTH RECEPTOR AGONISTS” (FERRING B.V., priority 2008, published 2011).
Non-standard residues stand in square brackets, D forms with d. Residues, ends and D or L forms follow the SMILES beside them. 1Nal = N[C@@H](Cc1cccc2ccccc12)C(=O)O; β3hI = CC[C@H](C)[C@H](N)CC(=O)O; Nle = CCCC[C@H](N)C(=O)O; Aib = CC(C)(N)C(=O)O

What was measured:
human PTH-1 receptor = biological target: T1, human PTH-1 receptor (Homo sapiens, UniProt Q03431); experiment: Reporter gene assay (CRE-luciferase) for agonist activity in transiently transfected HEK-293 cells; type: cell-based; details: for hPTHR-2/hPTHR-1: Table 3, selectivity for hPTH-1 receptor over hPTH-2 receptor; for hPTHR-2/hPTHR-1 / Selectivity hPTHR-2/hPTHR-1: ratio of EC50 values; for Selectivity hPTHR-2/hPTHR-1: Table 4 comparison data
T1 construct: expressed in transfected cells; host or cells: HEK-293
T1 sequence (Q03431 27-593): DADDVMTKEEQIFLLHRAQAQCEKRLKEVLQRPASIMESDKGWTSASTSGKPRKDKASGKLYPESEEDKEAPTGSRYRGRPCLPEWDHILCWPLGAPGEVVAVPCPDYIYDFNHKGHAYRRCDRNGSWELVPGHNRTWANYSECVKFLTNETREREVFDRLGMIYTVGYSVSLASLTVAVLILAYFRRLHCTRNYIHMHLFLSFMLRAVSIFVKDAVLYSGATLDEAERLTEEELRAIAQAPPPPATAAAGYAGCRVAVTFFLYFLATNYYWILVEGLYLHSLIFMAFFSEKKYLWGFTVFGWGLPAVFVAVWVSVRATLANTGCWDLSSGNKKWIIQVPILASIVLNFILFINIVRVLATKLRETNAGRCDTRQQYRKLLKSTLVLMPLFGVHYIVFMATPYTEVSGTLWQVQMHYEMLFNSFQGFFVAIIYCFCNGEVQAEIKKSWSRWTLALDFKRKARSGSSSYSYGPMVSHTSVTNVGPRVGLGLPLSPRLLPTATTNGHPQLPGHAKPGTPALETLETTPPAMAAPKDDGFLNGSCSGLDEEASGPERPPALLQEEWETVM
Summary of the method: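 HEK-293 cells transiently transfected with SV40-driven human PTH-1 receptor and CRE-luciferase reporter, exposed to serial compound dilutions for 4-5 h, then lysed for luciferase readout; efficacy and EC50 by non-linear regression, PTH (1-34) as internal control, n≥3. Selectivity measured in analogous human PTH-2 receptor luciferase reporter assays.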

human PTH-2 receptor = biological target: T2, human PTH-2 receptor (Homo sapiens, UniProt P49190); experiment: Luciferase-based transcriptional reporter gene assay for selectivity; type: cell-based
T2 construct: expressed in transfected cells
Description: Agonist activity of compounds on the human PTH-1 receptor was determined in a reporter gene assay by transiently transfecting HEK-293 cells with plasmids encoding human PTH-1 receptor under control of the SV40 promoter and a luciferase reporter gene under control of cAMP responsive elements (CRE). See Himmler et al, J. Recept. Res. 13 (1993) 79-94, for further guidance on this assay. Transfected cells were exposed to serial dilutions of compounds for 4-5 hours followed by lysis of cells, determination of luciferase activity, and determination of compound efficacies and EC50 values through non-linear regression.
PTH (1-34) was used as an internal control in each experiment and compounds were tested in at least three independent experiments. To determine selectivity, compounds were tested in luciferase-based transcriptional reporter gene assays expressing the human PTH-2 receptor.

T2 sequence (P49190 25-550): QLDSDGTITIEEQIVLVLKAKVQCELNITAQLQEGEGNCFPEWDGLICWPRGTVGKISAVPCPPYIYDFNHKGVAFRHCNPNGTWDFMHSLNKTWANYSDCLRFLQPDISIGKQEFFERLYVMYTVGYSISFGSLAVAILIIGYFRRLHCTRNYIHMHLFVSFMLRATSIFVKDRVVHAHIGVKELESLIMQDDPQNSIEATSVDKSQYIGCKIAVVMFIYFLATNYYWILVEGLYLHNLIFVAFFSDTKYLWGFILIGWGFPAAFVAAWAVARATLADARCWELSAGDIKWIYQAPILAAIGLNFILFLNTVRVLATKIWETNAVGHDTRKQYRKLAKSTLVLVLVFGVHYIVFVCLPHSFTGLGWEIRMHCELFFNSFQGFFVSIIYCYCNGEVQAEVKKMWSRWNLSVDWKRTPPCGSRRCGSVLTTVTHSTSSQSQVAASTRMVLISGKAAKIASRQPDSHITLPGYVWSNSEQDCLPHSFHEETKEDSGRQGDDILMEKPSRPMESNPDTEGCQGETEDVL

SMILES | EC50 (human PTH-1 receptor) [nM] | hPTHR-2/hPTHR-1 (human PTH-1 receptor) | Selectivity hPTHR-2/hPTHR-1 (human PTH-1 receptor) | EC50 (human PTH-2 receptor) [nM] | potency at the hPTH-1 receptor compared to PTH (1-34) (human PTH-1 receptor; in words)
CCCC[C@H](NC(=O)[C@H](CC(C)C)NC(=O)[C@H](CCC(N)=O)NC(=O)[C@@H](NC(=O)[C@H](CCC(=O)O)NC(=O)[C@H](CO)NC(=O)[C@@H](NC(=O)[C@@H](N)CO)C(C)C)[C@@H](C)CC)C(=O)N[C@@H](Cc1c[nH]cn1)C(=O)N[C@@H](CC(N)=O)C(=O)N[C@@H](CC(C)C)C(=O)NCC(=O)N[C@@H](CCCCN)C(=O)N[C@@H](Cc1c[nH]cn1)C(=O)N[C@@H](CC(C)C)C(=O)N[C@@H](CC(N)=O)C(=O)N[C@@H](CO)C(=O)N[C@H](CC(=O)N[C@@H](CCC(=O)O)C(=O)N[C@@H](CCCNC(=N)N)C(=O)N[C@H](C(=O)N[C@@H](CCC(=O)O)C(=O)N[C@@H](Cc1cccc2ccccc12)C(=O)N[C@@H](CC(C)C)C(=O)N[C@@H](CCCNC(=N)N)C(=O)N[C@@H](CCCCN)C(=O)N[C@@H](CC(C)C)C(=O)N[C@@H](CC(C)C)C(=O)N[C@@H](CCC(N)=O)C(=O)N[C@@H](CC(=O)O)C(=O)N[C@H](C(=O)N[C@@H](Cc1c[nH]cn1)C(=O)N[C@@H](CC(N)=O)C(=O)N[C@@H](Cc1ccccc1)C(N)=O)C(C)C)C(C)C)[C@@H](C)CC [SEQ ID NO: 19, [Nle^8, β-hIle^18,1-Nal^23, Leu^27] hPTH (1-34)-NH2] (H-SVSEIQL[Nle]HNLGKHLNS[β3hI]ERVE[1Nal]LRKLLQDVHNF-NH2) | 0.14 | 224 | 224 | 32 | 
CCCC[C@H](NC(=O)[C@H](CC(C)C)NC(=O)[C@H](CCC(N)=O)NC(=O)[C@@H](NC(=O)[C@H](CCC(=O)O)NC(=O)[C@H](CO)NC(=O)[C@@H](NC(=O)[C@@H](N)CO)C(C)C)[C@@H](C)CC)C(=O)N[C@@H](Cc1c[nH]cn1)C(=O)N[C@@H](CO)C(=O)N[C@@H](CC(C)C)C(=O)NCC(=O)N[C@@H](CCCCN)C(=O)N[C@@H](Cc1c[nH]cn1)C(=O)N[C@@H](CC(C)C)C(=O)N[C@@H](CCCCN)C(=O)N[C@@H](CO)C(=O)N[C@H](CC(=O)N[C@@H](CCC(=O)O)C(=O)N[C@@H](CCCNC(=N)N)C(=O)N[C@H](C(=O)N[C@@H](CCC(=O)O)C(=O)N[C@@H](Cc1cccc2ccccc12)C(=O)N[C@@H](CC(C)C)C(=O)N[C@@H](CCCNC(=N)N)C(=O)N[C@@H](CCCCN)C(=O)N[C@@H](CC(C)C)C(=O)N[C@@H](CC(C)C)C(=O)N[C@@H](CCC(N)=O)C(=O)N[C@@H](CCCNC(=N)N)C(=O)N[C@H](C(N)=O)C(C)C)C(C)C)[C@@H](C)CC [SEQ ID NO: 49, [Nle^8, Ser^10, Lys^16, β-hIle^18,1-Nal^23, Leu^27, Arg^30] hPTH (1-31)-NH2] (H-SVSEIQL[Nle]HSLGKHLKS[β3hI]ERVE[1Nal]LRKLLQRV-NH2) | 0.08 | 87 |  | 7 | 
CCCC[C@H](NC(=O)[C@H](CC(C)C)NC(=O)[C@H](CCC(N)=O)NC(=O)[C@@H](NC(=O)[C@H](CCC(=O)O)NC(=O)[C@H](CO)NC(=O)[C@@H](NC(=O)C(C)(C)N)C(C)C)[C@@H](C)CC)C(=O)N[C@@H](Cc1c[nH]cn1)C(=O)N[C@@H](CC(N)=O)C(=O)N[C@@H](CC(C)C)C(=O)NCC(=O)N[C@@H](CCCCN)C(=O)N[C@@H](Cc1c[nH]cn1)C(=O)N[C@@H](CC(C)C)C(=O)N[C@@H](CCCCN)C(=O)N[C@@H](CO)C(=O)N[C@H](CC(=O)N[C@@H](CCC(=O)O)C(=O)N[C@@H](CCCNC(=N)N)C(=O)N[C@H](C(=O)N[C@@H](CCC(=O)O)C(=O)N[C@@H](Cc1cccc2ccccc12)C(=O)N[C@@H](CC(C)C)C(=O)N[C@@H](CCCNC(=N)N)C(=O)N[C@@H](CCCCN)C(=O)N[C@@H](CC(C)C)C(=O)N[C@@H](CC(C)C)C(=O)N[C@@H](CCC(N)=O)C(=O)N[C@@H](CCCNC(=N)N)C(=O)N[C@H](C(=O)N[C@@H](Cc1c[nH]cn1)C(=O)N[C@@H](CCC(=O)O)C(=O)N[C@@H](Cc1ccccc1)C(N)=O)C(C)C)C(C)C)[C@@H](C)CC [SEQ ID NO: 39, [Aib^1, Nle^8, Lys^16, β-hIle^18,1-Nal^23, Leu^27, Arg^30, Glu^33] hPTH (1-34)-NH2] (H-[Aib]VSEIQL[Nle]HNLGKHLKS[β3hI]ERVE[1Nal]LRKLLQRVHEF-NH2; N-terminus assumed) | 0.09 | 61 |  | 6 | 
CCCC[C@H](NC(=O)[C@H](CC(C)C)NC(=O)[C@H](CCC(N)=O)NC(=O)[C@@H](NC(=O)[C@H](CCC(=O)O)NC(=O)[C@H](CO)NC(=O)[C@@H](NC(=O)[C@@H](N)CO)C(C)C)[C@@H](C)CC)C(=O)N[C@@H](Cc1c[nH]cn1)C(=O)N[C@@H](CO)C(=O)N[C@@H](CC(C)C)C(=O)NCC(=O)N[C@@H](CCCCN)C(=O)N[C@@H](Cc1c[nH]cn1)C(=O)N[C@@H](CC(C)C)C(=O)N[C@@H](CC(N)=O)C(=O)N[C@@H](CO)C(=O)N[C@H](CC(=O)N[C@@H](CCC(=O)O)C(=O)N[C@@H](CCCNC(=N)N)C(=O)N[C@H](C(=O)N[C@@H](CCC(=O)O)C(=O)N[C@@H](Cc1cccc2ccccc12)C(=O)N[C@@H](CC(C)C)C(=O)N[C@@H](CCCNC(=N)N)C(=O)N[C@@H](CCCCN)C(=O)N[C@@H](CC(C)C)C(=O)N[C@@H](CC(C)C)C(=O)N[C@@H](CCC(N)=O)C(=O)N[C@@H](CC(=O)O)C(=O)N[C@H](C(=O)N[C@@H](Cc1c[nH]cn1)C(=O)N[C@@H](CC(N)=O)C(=O)N[C@@H](Cc1ccccc1)C(N)=O)C(C)C)C(C)C)[C@@H](C)CC [SEQ ID NO: 23, [Nle^8, Ser^10, β-hIle^18,1-Nal^23, Leu^27] hPTH (1-34)-NH2] (H-SVSEIQL[Nle]HSLGKHLNS[β3hI]ERVE[1Nal]LRKLLQDVHNF-NH2) | 0.18 | 95 |  | 17 | 
CCCC[C@H](NC(=O)[C@H](CC(C)C)NC(=O)[C@H](CCC(N)=O)NC(=O)[C@@H](NC(=O)[C@H](CCC(=O)O)NC(=O)[C@H](CO)NC(=O)[C@@H](NC(=O)[C@@H](N)CO)C(C)C)[C@@H](C)CC)C(=O)N[C@@H](Cc1c[nH]cn1)C(=O)N[C@@H](CC(N)=O)C(=O)N[C@@H](CC(C)C)C(=O)NCC(=O)N[C@@H](CCCCN)C(=O)N[C@@H](Cc1c[nH]cn1)C(=O)N[C@@H](CC(C)C)C(=O)N[C@@H](CC(N)=O)C(=O)N[C@@H](CO)C(=O)N[C@H](CC(=O)N[C@@H](CCC(=O)O)C(=O)N[C@@H](CCCNC(=N)N)C(=O)N[C@H](C(=O)N[C@@H](CCC(=O)O)C(=O)N[C@@H](Cc1cccc2ccccc12)C(=O)N[C@@H](CC(C)C)C(=O)N[C@@H](CCCNC(=N)N)C(=O)N[C@@H](CCCCN)C(=O)N[C@@H](CC(C)C)C(=O)N[C@@H](CC(C)C)C(=O)N[C@@H](CCC(N)=O)C(=O)N[C@@H](CC(=O)O)C(=O)N[C@H](C(N)=O)C(C)C)C(C)C)[C@@H](C)CC [SEQ ID NO: 1, [Nle^8, β-hIle^18,1-Nal^23, Leu^27] hPTH-(1-31)-NH2] (H-SVSEIQL[Nle]HNLGKHLNS[β3hI]ERVE[1Nal]LRKLLQDV-NH2; N-terminus assumed) | 0.09 | 339 |  | 32 | Improved potency
CCCC[C@H](NC(=O)[C@H](CC(C)C)NC(=O)[C@H](CCC(N)=O)NC(=O)[C@@H](NC(=O)[C@H](CCC(=O)O)NC(=O)[C@H](CO)NC(=O)[C@@H](NC(=O)C(C)(C)N)C(C)C)[C@@H](C)CC)C(=O)N[C@@H](Cc1c[nH]cn1)C(=O)N[C@@H](CC(N)=O)C(=O)N[C@@H](CC(C)C)C(=O)NCC(=O)N[C@@H](CCCCN)C(=O)N[C@@H](Cc1c[nH]cn1)C(=O)N[C@@H](CC(C)C)C(=O)N[C@@H](CC(N)=O)C(=O)N[C@@H](CO)C(=O)N[C@H](CC(=O)N[C@@H](CCC(=O)O)C(=O)N[C@@H](CCCNC(=N)N)C(=O)N[C@H](C(=O)N[C@@H](CCC(=O)O)C(=O)N[C@@H](Cc1cccc2ccccc12)C(=O)N[C@@H](CC(C)C)C(=O)N[C@@H](CCCNC(=N)N)C(=O)N[C@@H](CCCCN)C(=O)N[C@@H](CC(C)C)C(=O)N[C@@H](CC(C)C)C(=O)N[C@@H](CCC(N)=O)C(=O)N[C@@H](CC(=O)O)C(=O)N[C@H](C(N)=O)C(C)C)C(C)C)[C@@H](C)CC [SEQ ID NO: 5, [Aib^1, Nle^8, β-hIle^18,1-Nal^23, Leu^27] hPTH (1-31)-NH2] (H-[Aib]VSEIQL[Nle]HNLGKHLNS[β3hI]ERVE[1Nal]LRKLLQDV-NH2) | 0.05 | 387 | 387 | 18 | 
